± gives the expanded uncertainty stated by the source.
Conditions: 101.3 kPa, Liquid, Vibrating tube method

## O [water]
323.15 K
  mass density: 988 ± 0.2 kg/m3
328.15 K
  mass density: 985.7 ± 0.2 kg/m3
333.15 K
  mass density: 983.2 ± 0.2 kg/m3

From the NIST ThermoML archive (doi:10.1021/acs.jced.8b00070)
